US20100311770A1, “COMPOUND COMBINATIONS FOR INHIBITING CELL DIVISION AND METHODS FOR THEIR IDENTIFICATION AND USE” (President and Fellows of Harvard College, priority 2005, published 2010)
Values after ≈ are worked out from the molar mass of the structure shown. “Also recorded” adds a separate entry of the source.

Assays:
E. coli strain DRC39 = test: combination anti-bacterial treatment at sub-MIC concentrations, cell growth by turbidity or OD600; assay type: cell-based; conditions: for amount of growth relative to absence of compound / growth inhibition: single compound
Experimental: Cell growth was assessed by visual inspection of cells incubated in culture tubes in this experiment and in the second, third, and fourth experiments described in this Example. In the fifth experiment growth was measured by reading optical density (OD600) using a multiwell plate reader. Cells were inoculated at a low concentration (1-2×10^5 cells/ml), such that the medium appeared clear.

[1] = test system: E. coli DRC39 (ΔacrAB::kan); assay type: cell-based; conditions: for MIC: E. coli DRC39 (ΔacrAB::kan), MIC99
[2] = molecular target: E. coli FtsZ (FtsZEc) GTPase (Escherichia coli, UniProt P0A9A6); conditions: read-out: IC50 FtsZEc GTPase; 5 min preincubation at 30° C., 1 mM GTP; average of three determinations
Experimental: FtsZ was preincubated with varying concentrations of compounds or with 3% DMSO in buffer E for 5 min at 30° C., before adding 1 mM GTP to the reactions. Reaction kinetics were followed by measuring inorganic phosphate released upon GTP hydrolysis. The IC50 values were extrapolated from log dose-response curves and are averages from three independent determinations.

[3] = molecular target: M. tuberculosis FtzZ (FtsZMt) GTPase (Mycobacterium tuberculosis, UniProt P9WN95); test: malachite green-phosphomolybdate assay of FtsZ GTPase activity; assay type: biochemical; conditions: 5 min preincubation at 30° C., 1 mM GTP; average of three determinations
E. coli DRC40/pBR-ftsZ+ = assay type: cell-based
[4] = test system: E. coli DRC42 (DRC39 recA::cat); test: MIC, standard broth dilution
[5] = test system: E. coli MC1000 (wild-type); test: MIC, standard broth dilution; conditions: MIC99
[6] = test system: E. coli DRC40 (DRC39 ftsZ84); test: MIC / growth and phenotype, broth culture; assay type: cell-based
Bacillus subtilis = test: MIC / killing, broth culture
[7] = test system: FtsZ ring assembly in E. coli DRC39 cells; assay type: cell-based
Vibrio cholerae = test: MIC, standard broth dilution
Clostridium perfringens = assay type: cell-based
Staphylococcus aureus = test: MIC, standard broth dilution
[8] = test system: gram-negative and gram-positive bacteria; test: MIC against a variety of bacteria (FIG. 19); assay type: cell-based
Experimental: FIG. 19 is a table illustrating the minimum inhibitory concentrations of FtsZ GTPase inhibitory compounds identified in vitro. The compounds were tested against a variety of gram-negative and gram-positive bacteria.
The minimum inhibitory concentrations for some of the identified compounds against various bacterial species and strains were evaluated and results are shown herein (see, e.g., FIG. 19 for MIC values of compounds identified using in vitro assays, and see Table 3 for MIC values for compound 26E-10).

[9] = C. perfringens, 80 μM, anaerobic conditions

Sequence of E. coli FtsZ (FtsZEc) GTPase (P0A9A6 whole entry): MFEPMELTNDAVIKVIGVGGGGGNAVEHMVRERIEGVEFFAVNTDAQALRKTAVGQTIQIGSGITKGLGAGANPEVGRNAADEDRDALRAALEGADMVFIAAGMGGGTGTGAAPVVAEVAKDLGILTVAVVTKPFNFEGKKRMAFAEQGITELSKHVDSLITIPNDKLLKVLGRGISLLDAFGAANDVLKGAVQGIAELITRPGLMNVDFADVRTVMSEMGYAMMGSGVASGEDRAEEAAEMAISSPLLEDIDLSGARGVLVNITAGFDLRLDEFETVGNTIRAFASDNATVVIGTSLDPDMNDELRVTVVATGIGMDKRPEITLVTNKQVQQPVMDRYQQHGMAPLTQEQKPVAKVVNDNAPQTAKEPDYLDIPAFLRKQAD
Sequence of M. tuberculosis FtzZ (FtsZMt) GTPase (P9WN95 whole entry): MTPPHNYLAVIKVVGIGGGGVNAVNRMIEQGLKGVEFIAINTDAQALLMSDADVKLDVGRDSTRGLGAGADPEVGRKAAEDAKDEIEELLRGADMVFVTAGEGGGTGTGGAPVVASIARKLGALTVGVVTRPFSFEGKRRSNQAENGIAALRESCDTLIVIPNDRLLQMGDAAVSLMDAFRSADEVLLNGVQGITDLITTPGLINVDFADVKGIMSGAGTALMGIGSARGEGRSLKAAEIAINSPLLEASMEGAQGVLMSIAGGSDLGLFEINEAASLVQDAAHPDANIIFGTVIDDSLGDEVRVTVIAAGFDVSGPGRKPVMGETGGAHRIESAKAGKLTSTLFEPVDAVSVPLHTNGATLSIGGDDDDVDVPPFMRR

With `CCN1C(=Cc2ccc3c4ccccc4ccc3[n+]2CC)C=Cc2ccccc21.Cc1ccc(S(=O)(=O)[O-])cc1` [7N-12] the “amount of growth relative to absence of compound” value (E. coli strain DRC39; 0.3 μM) was 98%, the growth inhibition (E. coli strain DRC39; 0.3 μM) was 2% and the MIC [1] was 1.25 µM.

For `CCN(CC)CCNc1nc(C=Cc2ccc(Cl)cc2)nc2cc3ccccc3cc12` [16L-09], the “reduction in MIC when administered in combination” value (E. coli strain DRC39; in combination with 26E-10 at sub-MIC concentrations) was 4 fold, the MIC [1] was 10 µM (≈ 4.31 µg/mL) and the IC50 [2] was 15 µM. The IC50 [3] was 50 µM.

With `CC[n+]1ccc(/C=C/N(C)c2ccccc2)c2ccccc21.[I-]` [26E-10] the “cell density and filamentation” value (E. coli DRC40/pBR-ftsZ+; DRC40/pBR-ftsZ+, 5 μM compound, versus DRC40/pBR322) was “higher cell density and less pronounced filamentation”, the MIC (E. coli DRC40/pBR-ftsZ+; DRC40 with wild-type ftsZ in trans (pBR-ftsZ+)) was 10 µM and the MIC [4] was 10 µM. For the same molecule, the “amount of growth relative to absence of compound” value (E. coli strain DRC39; 5 μM) was 41%, the growth inhibition (E. coli strain DRC39; 5 μM) was 59% and the MIC [5] was >40 µM. The growth ([6]; DRC40/pBR322, 5 μM compound, 30° C.) was “absolutely no growth”, the “phenotype at MIC” value ([6]; E. coli DRC40) was “filaments” and the MIC ([6]; E. coli DRC40 (ftsZ84), 30° C., MIC99) was 2.5 µM. The “cell morphology and density” value ([1]; DRC39, 5 μM compound, 30° C.) was “mixture of filaments of varying lengths and short cells present at a low density”, the “phenotype at MIC” value ([1]; E. coli DRC39) was “filaments” and the MIC [1] was 10 µM. The “killing of B. subtilis” value (Bacillus subtilis) was “efficiently killed”, the MIC (Bacillus subtilis; Bacillus subtilis) was 40 µM and the “DNA replication / chromosome segregation (DAPI staining of nucleoids)” value ([7]; 10 μM) was “does not affect DNA replication or chromosome segregation”. The “Z-rings in elongated cells” value ([7]; 10 μM (MIC), within 60 min) was “markedly reduced in number and diminished in intensity”, the Z-rings ([7]; 10 μM, after 90 min treatment) was “most of the cells were devoid of distinct Z-rings” and the “cell length (filamentation)” value ([7]; 10 μM, within 60 min of treatment) was ~4 ×. For the same molecule, the MIC (Vibrio cholerae) was 40 µM, the “effect on cell growth” value (Clostridium perfringens; [9]) was “without any overt effect on cell growth” and the phenotype (Clostridium perfringens; [9]) was “filamentation phenotype; also recorded: filaments”. For the same molecule, the MIC (Clostridium perfringens; Clostridium perfringens) was > 80 µM and the MIC (Staphylococcus aureus) was 20 µM.

In the case of `Oc1ccc(Cl)cc1Cc1cc(Cl)cc(Cc2cc(Cl)ccc2O)c1O` [27D-12], the MIC [1] is reported as 20 µM (≈ 8.19 µg/mL), the IC50 [2] is reported as 5 µM and the “activity against gram negative bacteria” value [8] is reported as “kills gram negative species”. The “activity against gram positive bacteria” value [8] was “effective against gram positive bacteria at very low concentrations” and the IC50 [3] was 55 µM.

With `Nc1c(C=Cc2cc3cc(C4=NCCN4)ccc3o2)[nH]c2cc(C3=NCCN3)ccc12` [58P-18] the MIC [1] was 80 µM (≈ 32.8 µg/mL), the Z-ring assembly ([7]; 40 μM) was “none of the treated cells appear to contain a medial FtsZ ring” and the “time until cells start elongating” value ([7]; 40 μM) was ≤ 60 min. The IC50 [2] was 4 µM and the IC50 [3] was 30 µM.
